# Test results as given in patent US8796245B2 (TetraPhase Pharmaceuticals, Inc., priority 2008, dated 2014).
# How the values were obtained:
# Type in all cases: cell-based
# [1] = test system: E. faecalis EF159 (tet resistant: tetM); experiment: Minimum inhibitory concentration assay, EF159; conditions: Enterococcus faecalis, read-out: MICs EF159
# Protocol: (§1) Frozen bacterial strains were thawed and subcultured onto Mueller Hinton Broth (MHB) or other appropriate media (Streptococcus requires blood and Haemophilus requires hemin and NAD). Following incubation overnight, the strains were subcultured onto Mueller Hinton Agar and again incubated overnight. […] Isolated colonies were selected to prepare a starting inoculum equivalent to a 0.5 McFarland standard. The starting inoculum was diluted 1:125 using MHB for further use. Test compounds were prepared by dilution in sterile water to a final concentration of 5.128 mg/mL. Antibiotics (stored frozen, thawed and used within 3 hours of thawing) and compounds were further diluted to the desired working concentrations.
# (§2) The assays were run as follows. Fifty μL of MHB was added to wells 2-12 of a 96-well plate. One hundred […] of appropriately diluted antibiotics was added to well 1. Fifty μL of antibiotics was removed from well 1 and added to well 2 and the contents of well 2 mixed by pipetting up and down five times. Fifty μL of the mixture in well 2 was removed and added to well 3 and mixed as above. Serial dilutions were continued in the same manner through well 12. Fifty μL was removed from well 12 so that all contained 50 μL. Fifty μL of the working inoculum was then added to all test wells. A growth control well was prepared by adding 50 μL of working inoculum and 50 μL of MHB to an empty well. The plates were then incubated at 37° C. overnight, removed from the incubator and each well was read on a plate reading mirror. The lowest concentration (MIC) of test compound that inhibited the growth of the bacteria was recorded.
# [2] = test system: S. aureus ATCC 29213 (SA101, MSSA); experiment: Minimum inhibitory concentration assay, SA101; conditions: Staphylococcus aureus; S. aureus ATCC 29213, MSSA control; read-out: MICs SA101
# Protocol: as §1, §2
# [3] = test system: A. baumanii ATCC 19606 (AB110); experiment: Minimum inhibitory concentration assay, AB110; conditions: Acinetobacter baumannii, ATCC19606; A. baumanii ATCC 19606, wt; read-out: MICs AB110
# Protocol: as §1, §2
# [4] = test system: S. aureus ATCC 13709 (SA100, MSSA, Smith strain); experiment: Minimum inhibitory concentration assay, SA100; conditions: Staphylococcus aureus; S. aureus ATCC 13709, MSSA Smith strain; read-out: MICs SA100
# Protocol: as §1, §2
# [5] = test system: E. coli ATCC 25922 (EC107); experiment: Minimum inhibitory concentration assay, EC107; conditions: Escherichia coli, ATCC25922; E. coli ATCC 25922, wt; read-out: MICs EC107
# Protocol: as §1, §2
# [6] = test system: E. coli EC155 (tet resistant: tetA efflux); experiment: microbe, parasite or virus in culture; conditions: Escherichia coli; E. coli tet resistant: tetA (efflux); read-out: MICs EC155
# Protocol: as §1, §2
# [7] = test system: S. aureus SA158 (tet resistant: tetK efflux); experiment: microbe, parasite or virus in culture; conditions: Staphylococcus aureus, read-out: MICs SA158
# Protocol: as §1, §2
# [8] = test system: K. pneumoniae KP153 (tet resistant: tetA efflux); experiment: microbe, parasite or virus in culture; conditions: Klebsiella pneumoniae, read-out: MICs KP153
# Protocol: as §1, §2
# [9] = test system: K. pneumoniae ATCC 13883 (KP109); experiment: Minimum inhibitory concentration assay, KP109; conditions: Klebsiella pneumoniae, ATCC13883; K. pneumoniae ATCC 13883, wt; read-out: MICs KP109
# Protocol: as §1, §2
# [10] = test system: E. faecalis ATCC 29212 (EF103); experiment: Minimum inhibitory concentration assay, EF103; conditions: Enterococcus faecalis, ATCC29212, read-out: MICs EF103
# Protocol: as §1, §2
# [11] = test system: S. pneumoniae ATCC 49619 (SP106); experiment: Minimum inhibitory concentration assay, SP106; conditions: Streptococcus pneumoniae, ATCC49619; S. pneumoniae ATCC 49619, wt; read-out: MICs SP106
# Protocol: as §1, §2
# [12] = test system: E. cloacae ATCC 13047 (EC108); experiment: Minimum inhibitory concentration assay, EC108; conditions: Enterobacter cloacae, ATCC13047; E. cloacae ATCC 13047, wt; read-out: MICs EC108
# Protocol: as §1, §2
# [13] = test system: S. aureus SA161 (tet resistant: tet(M) ribosomal protection); experiment: Minimum inhibitory concentration assay, SA161; conditions: Staphylococcus aureus, read-out: MICs SA161
# Protocol: as §1, §2
# [14] = test system: S. pneumoniae SP160 (tet resistant: tet M); experiment: Minimum inhibitory concentration assay, SP160; conditions: Streptococcus pneumoniae, read-out: MICs SP160
# Protocol: as §1, §2
# [15] = test system: P. aeruginosa ATCC 27853 (PA111); experiment: Minimum inhibitory concentration assay, PA111; conditions: Pseudomonas aeruginosa, ATCC27853; P. aeruginosa ATCC 27853, wt; read-out: MICs PA111
# Protocol: as §1, §2
Structure (SMILES),MIC [1] [µg/mL],MIC [2] [µg/mL],MIC [3] [µg/mL],MIC [4] [µg/mL],MIC [5] [µg/mL],MIC [6] [µg/mL],MIC [7] [µg/mL],MIC [8] [µg/mL],MIC [9] [µg/mL],MIC [10] [µg/mL],MIC [11] [µg/mL],MIC [12] [µg/mL],MIC [13] [µg/mL],MIC [14] [µg/mL],MIC [15] [µg/mL]
CN(C)[C@@H]1C(O)=C(C(N)=O)C(=O)[C@@]2(O)C(O)=C3C(=O)c4c(O)c(NC(=O)CNCC5CC5)cc(F)c4C[C@H]3C[C@@H]12 [Compound 20],0.0625,≤ 0.0156,1,0.25,0.25,8,0.5,4,1,≤ 0.0156,≤ 0.0156,1,0.25,≤ 0.0156,8
CC(C)CNCC(=O)Nc1cc(F)c2c(c1O)C(=O)C1=C(O)[C@]3(O)C(=O)C(C(N)=O)=C(O)[C@@H](N(C)C)[C@@H]3C[C@@H]1C2 [Compound 19],0.125,0.125,0.25,0.25,0.25,4,0.25,4,1,≤ 0.0156,≤ 0.0156,2,0.25,≤ 0.0156,16
CC(C)NCC(=O)Nc1cc(F)c2c(c1O)C(=O)C1=C(O)[C@]3(O)C(=O)C(C(N)=O)=C(O)[C@@H](N(C)C)[C@@H]3C[C@@H]1C2 [Compound 16],0.0625,0.125,1,0.25,0.5,8,0.5,4,1,0.0625,≤ 0.0156,1,0.25,≤ 0.0156,16
CN(C)[C@@H]1C(O)=C(C(N)=O)C(=O)[C@@]2(O)C(O)=C3C(=O)c4c(O)c(NC(=O)CN5CC[C@H](O)C5)cc(F)c4C[C@H]3C[C@@H]12 [Compound 40],1,1,8,1,4,> 32,16,32,8,1,0.0625,4,1,0.5,32
CN(C)[C@@H]1C(O)=C(C(N)=O)C(=O)[C@@]2(O)C(O)=C3C(=O)c4c(O)c(NC(=O)CN5Cc6ccccc6C5)cc(F)c4C[C@H]3C[C@@H]12 [Compound 46],0.5,0.25,0.125,0.25,2,4,0.25,32,4,0.25,0.125,32,0.5,0.125,> 32
CN(C)[C@@H]1C(O)=C(C(N)=O)C(=O)[C@@]2(O)C(O)=C3C(=O)c4c(O)c(NC(=O)CNCC(F)(F)F)cc(F)c4C[C@H]3C[C@@H]12 [Compound 22],4,1,2,1,16,> 32,4,> 32,32,2,0.5,> 32,2,1,> 32
COC[C@H]1CCCN1CC(=O)Nc1cc(F)c2c(c1O)C(=O)C1=C(O)[C@]3(O)C(=O)C(C(N)=O)=C(O)[C@@H](N(C)C)[C@@H]3C[C@@H]1C2 [Compound 42],1,0.5,0.5,1,4,16,1,16,8,0.5,0.125,16,2,0.0625,> 32
CN(C)[C@@H]1C(O)=C(C(N)=O)C(=O)[C@@]2(O)C(O)=C3C(=O)c4c(O)c(NC(=O)CN5CC6CCCC6C5)cc(F)c4C[C@H]3C[C@@H]12 (stereo partly drawn) [Compound 45],0.5,0.5,0.06,0.5,1,2,0.5,4,2,0.25,0.125,4,1,0.06,> 32
CN(C)[C@@H]1C(O)=C(C(N)=O)C(=O)[C@@]2(O)C(O)=C3C(=O)c4c(O)c(NC(=O)CNC5CC5)cc(F)c4C[C@H]3C[C@@H]12 [Compound 17],1,0.25,0.5,0.5,2,32,2,32,4,0.25,0.0625,8,1,0.0625,32
CN(C)[C@@H]1C(O)=C(C(N)=O)C(=O)[C@@]2(O)C(O)=C3C(=O)c4c(O)c(NC(=O)CNc5ccccc5)cc(F)c4C[C@H]3C[C@@H]12 [Compound 30],2,2,8,1,> 32,> 32,2,> 32,> 32,2,2,> 32,4,4,> 32
CN(C)[C@@H]1C(O)=C(C(N)=O)C(=O)[C@@]2(O)C(O)=C3C(=O)c4c(O)c(NC(=O)CN5CCC5)cc(F)c4C[C@H]3C[C@@H]12 [Compound 32],0.125,0.125,2,0.5,0.25,8,0.5,4,1,0.0625,≤ 0.0156,1,0.25,≤ 0.0156,8
CN(C)[C@@H]1C(O)=C(C(N)=O)C(=O)[C@@]2(O)C(O)=C3C(=O)c4c(O)c(NC(=O)CC5CC(F)C5)cc(F)c4C[C@H]3C[C@@H]12 (stereo partly drawn) [Compound 33],1,0.25,4,0.5,2,> 32,2,> 32,4,0.25,≤ 0.0156,16,1,0.125,> 32
COCCNCC(=O)Nc1cc(F)c2c(c1O)C(=O)C1=C(O)[C@]3(O)C(=O)C(C(N)=O)=C(O)[C@@H](N(C)C)[C@@H]3C[C@@H]1C2 [Compound 21],1,0.25,2,0.25,1,16,4,8,2,0.125,≤ 0.0156,4,0.5,0.0625,16
